Assay results published in paper PMC6872757 (Heliyon, 2019).

Tests used:
Assay in all cases: TR-FRET nuclear receptor binding assay
PPARα = target: T1, PPARα (Homo sapiens, UniProt Q07869)
T1 sequence (Q07869 1-468): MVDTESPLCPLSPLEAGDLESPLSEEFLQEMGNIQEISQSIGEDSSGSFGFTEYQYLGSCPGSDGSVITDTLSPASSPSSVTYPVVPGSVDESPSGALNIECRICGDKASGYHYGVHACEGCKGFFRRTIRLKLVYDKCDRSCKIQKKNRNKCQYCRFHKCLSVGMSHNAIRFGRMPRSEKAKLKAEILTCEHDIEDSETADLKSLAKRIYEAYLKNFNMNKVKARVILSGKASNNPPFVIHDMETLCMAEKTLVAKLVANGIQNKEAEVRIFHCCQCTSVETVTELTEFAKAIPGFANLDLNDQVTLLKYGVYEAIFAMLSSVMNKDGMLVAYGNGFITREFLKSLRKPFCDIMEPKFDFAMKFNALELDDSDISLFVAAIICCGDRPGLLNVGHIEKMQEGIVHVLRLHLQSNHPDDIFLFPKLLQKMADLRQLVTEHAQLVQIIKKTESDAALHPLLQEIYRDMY

PPARδ(β) = target: T2, PPARδ(β) (Homo sapiens, UniProt Q03181)
T2 sequence (Q03181 1-441): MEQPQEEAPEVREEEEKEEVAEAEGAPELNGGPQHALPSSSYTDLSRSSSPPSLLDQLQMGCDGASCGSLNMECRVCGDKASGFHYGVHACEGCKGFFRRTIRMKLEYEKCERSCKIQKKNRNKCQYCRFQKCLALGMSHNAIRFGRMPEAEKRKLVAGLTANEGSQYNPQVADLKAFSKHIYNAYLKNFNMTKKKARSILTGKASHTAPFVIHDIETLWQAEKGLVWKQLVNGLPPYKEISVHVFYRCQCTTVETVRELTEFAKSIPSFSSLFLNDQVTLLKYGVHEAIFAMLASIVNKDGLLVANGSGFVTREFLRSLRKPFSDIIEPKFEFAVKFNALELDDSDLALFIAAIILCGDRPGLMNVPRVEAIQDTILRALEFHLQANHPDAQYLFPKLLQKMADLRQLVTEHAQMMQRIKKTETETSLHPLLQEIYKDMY

PPARγ = target: T3, PPARγ (Homo sapiens, UniProt P37231)
T3 sequence (P37231 1-505): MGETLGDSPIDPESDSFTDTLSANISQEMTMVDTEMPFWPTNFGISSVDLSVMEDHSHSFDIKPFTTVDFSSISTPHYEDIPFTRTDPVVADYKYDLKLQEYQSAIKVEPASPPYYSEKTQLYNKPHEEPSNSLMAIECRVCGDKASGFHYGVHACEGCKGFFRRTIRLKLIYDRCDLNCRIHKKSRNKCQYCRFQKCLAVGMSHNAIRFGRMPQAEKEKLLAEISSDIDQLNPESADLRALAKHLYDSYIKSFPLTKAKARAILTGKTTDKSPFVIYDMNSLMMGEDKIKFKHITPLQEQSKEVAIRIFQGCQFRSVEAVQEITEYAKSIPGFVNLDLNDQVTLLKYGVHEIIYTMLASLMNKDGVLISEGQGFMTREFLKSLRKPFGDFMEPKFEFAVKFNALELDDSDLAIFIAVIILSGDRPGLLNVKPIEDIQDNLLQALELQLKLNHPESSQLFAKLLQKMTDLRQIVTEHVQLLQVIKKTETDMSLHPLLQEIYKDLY

CC1=C(/C=C/C(C)=C\C=C\C(C)=C\C(=O)O)C(C)(C)CCC1 [9-cis RA]
No binding: EC50 nuclear receptor binding PPARα (PPARα) | EC50 nuclear receptor binding PPARδ(β) (PPARδ(β)) | EC50 nuclear receptor binding PPARγ (PPARγ)

CC1=C(/C=C/C(C)=C/C=C/C(C)=C/C(=O)O)C(C)(C)CCC1 [ATRA, all-trans retinoic acid]
No binding: EC50 nuclear receptor binding PPARα (PPARα) | EC50 nuclear receptor binding PPARδ(β) (PPARδ(β)) | EC50 nuclear receptor binding PPARγ (PPARγ)
